Where two headings read alike, the source gives them in different places.
Key:
Type in all cases: cell-based, human
HTT mRNA [1] = assay: Splicing RT-qPCR gene panel, HTT canonical junction (CJ) mRNA; conditions: Homo sapiens, Tables 4A/4B, read-out: HTT (IC50, decrease in CJ mRNA, gene panel)
Method in brief: (§1)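 Canonical-junction mRNA levels were quantified by RT-qPCR in lysates, using ΔΔCt against a housekeeping gene (GAPDH, GUSB or PPIA) and DMSO wells, expressed as percentage response. Cells (A673 or K562) had been exposed for 24 h at 37° C. to 11 three-fold compound concentrations up to 10 uM, DMSO ≤0.25%.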

MYB mRNA = assay: Splicing RT-qPCR assay, MYB canonical (CJ) and alternative (AJ) junction mRNA; conditions: Homo sapiens
Method in brief: (§2)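 Canonical (CJ) and alternative-exon (AJ) junction mRNAs quantified by one-step RT-qPCR in cell lysates, normalized to housekeeping PPIA for A673 and GAPDH or GUSB for K562. Cells were exposed 24 h at 37 °C to 11-point 3-fold compound series from 10 uM final, with DMSO at or below 0.25%.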

SMN2 mRNA = assay: Splicing RT-qPCR gene panel, SMN2 canonical junction (CJ) mRNA; conditions: Homo sapiens, Tables 4A/4B, read-out: SMN2 (IC50, decrease in CJ mRNA, gene panel)
Method in brief: as §1

Target C mRNA = assay: Splicing RT-qPCR gene panel, Target C canonical junction (CJ) mRNA; conditions: Homo sapiens, Tables 4A/4B, read-out: Target C (IC50, decrease in CJ mRNA, gene panel)
Method in brief: as §1

HTT mRNA [2] = assay: Splicing RT-qPCR assay, HTT canonical (CJ) and alternative (AJ) junction mRNA; conditions: Homo sapiens
Method in brief: as §2

[3] = Table 3B, canonical junction mRNA, RT-qPCR, read-out: MYB CJ (IC50, decrease in CJ mRNA)
[4] = Tables 4A/4B, canonical junction qPCR panel, read-out: MYB (IC50, decrease in CJ mRNA, gene panel)
[5] = Table 3B, alternative junction mRNA, RT-qPCR, read-out: MYB AJ (AC50, increase in AJ mRNA)
[6] = Table 3B, alternative junction mRNA, read-out: HTT AJ (AC50, increase in AJ mRNA)
[7] = Table 3B, canonical junction mRNA, read-out: HTT CJ (IC50, decrease in CJ mRNA)
[8] = 24 h, A673 or K562 cells, 24 hours compound treatment, RT-qPCR, read-out: MYB AJ (AC50, increase in alternative junction mRNA)
[9] = 24 h, A673 or K562 cells, 24 hours compound treatment, RT-qPCR, read-out: MYB CJ (IC50, decrease in canonical junction mRNA)
[10] = 24 h, A673 or K562 cells, 24 hours compound treatment, read-out: HTT CJ (IC50, decrease in canonical junction mRNA)
[11] = A673 or K562 cells, 24 hours compound treatment, read-out: HTT AJ (AC50, increase in alternative junction mRNA)

IC50 (HTT mRNA [1]) [µM]	IC50 (MYB mRNA; [3]) [nM]	IC50 (MYB mRNA; [4]) [nM]	IC50 (SMN2 mRNA) [nM]	IC50 (Target C mRNA) [µM]	IC50 (HTT mRNA [2]; [7]) [µM]	IC50 (MYB mRNA; [9]) [nM]	IC50 (HTT mRNA [2]; [10]) [µM]	Structure (SMILES)	AC50 (MYB mRNA; [5]) [nM]	AC50 (HTT mRNA [2]; [6]) [µM]	AC50 (MYB mRNA; [8]) [nM]	AC50 (HTT mRNA [2]; [11]) [µM]
0.1 to 1	100 to 1000	100 to 1000	< 100	1 to 10	0.1 to 1			CCNC1CCN(c2ccc(C(=O)Nc3cc(F)c4nc(C)cn4c3)c3nc(CC)cn23)C1 (centres unmarked) [Compound 942]	100 to 1000	1 to 10		
> 10		> 10000	> 10000	> 10		> 10000	> 10	Cc1cc2nc(NC(=O)c3ccc(N4CCNCC4)c4cn(C)nc34)cc(C)n2n1 [Compound 421, N-{2,7-dimethylpyrazolo[1,5-a]pyrimidin-5-yl}-2-methyl-4-(piperazin-1-yl) indazole-7-carboxamide]			> 10000	> 10
> 10		> 10000	> 10000	> 10		> 10000	> 10	Cc1cn2nc(NC(=O)c3ccc(N4CCNCC4)c4cc(C)oc34)nc2c(C)n1 [Compound 264]			> 10000	> 10
> 10		< 100	< 100	> 10		< 100	> 10	CCn1cc2c(N3CC[C@H](N(C)C)C3)cc(F)c(C(=O)Nc3cc(F)c4nc(C)cn4c3)c2n1 [Compound 472, 4-[(3S)-3-(dimethylamino)pyrrolidin-1-yl]-2-ethyl-6-fluoro-N-{8-fluoro-2-methylimidazo[1,2-a]pyridin-6-yl}indazole-7-carboxamide]			< 100	1 to 10
> 10		> 10000	> 10000	> 10		> 10000	> 10	Cc1nc2c(F)cc(NC(=O)c3ccc(N4CCNCC4)c4cn(C)nc34)cc2n1C [Compound 332, N-(7-fluoro-2,3-dimethyl-1,3-benzodiazol-5-yl)-2-methyl-4-(piperazin-1-yl) indazole-7-carboxamide; trifluoroacetic acid]			> 10000	> 10
1 to 10	100 to 1000	100 to 1000	< 100	1 to 10	1 to 10			CCNC1CCN(c2ccc(C(=O)Nc3cc(F)c4nc(C)cn4c3)c3nc(CC)sc23)C1 (centres unmarked) [Compound 944]	100 to 1000	1 to 10		
1 to 10	< 100	< 100	< 100	1 to 10	1 to 10			CCc1nc2c(C(=O)Nc3cc(F)c4nc(C)cn4c3)ccc(N3CCNCC3)c2s1 [Compound 945]	< 100	1 to 10		
1 to 10		100 to 1000	< 100	> 10		100 to 1000	1 to 10	Cc1cn2cc(NC(=O)c3ccc(N4CCNCC4)c4cc(C)oc34)cc(Cl)c2n1 [Compound 266]			< 100	1 to 10
0.1 to 1		< 100	< 100	1 to 10		> 10000	> 10	CCn1cc2c(N3CCN(C)CC3)ccc(C(=O)Nc3cc(F)c4nc(CO)oc4c3)c2n1 [Compound 450, 2-ethyl-N-[4-fluoro-2-(hydroxymethyl)-1,3-benzoxazol-6-yl]-4-(4-methylpiperazin-1-yl) indazole-7-carboxamide]			> 10000	> 10
> 10		> 10000	1000 to 10000	> 10		> 10000	> 10	Cc1cn2nc(NC(=O)c3ccc(N4CCNCC4)c4cc(C)oc34)cc2c(C)n1 [Compound 265]			> 10000	> 10
